Measured values taken from patent publication US20110182850A1, “ORGANIC COMPOUNDS AND THEIR USES” (priority 2009, published 2011).

Biological target: T1, HCV NS3-4A serine protease (full-length NS3-4A protein, genotype 1a, strain HCV-1) (Hepatitis C virus genotype 1a, UniProt P26664)
T1 construct: using the full-length NS3-4A protein (genotype 1a, strain HCV-1)
Test: HCV NS3-4A protease assay
Type: biochemical
Conditions: Protease IC50
Experimental: The inhibitory activity of certain compounds of Table A against HCV NS3-4A serine protease is determined in a homogenous assay using the full-length NS3-4A protein (genotype 1a, strain HCV-1) and a commercially available internally-quenched fluorogenic peptide substrate as described by Taliani, M., et al. 1996 Anal. Biochem. 240:60-67, which is incorporated by reference in its entirety.

T1 sequence (P26664 1658-1711): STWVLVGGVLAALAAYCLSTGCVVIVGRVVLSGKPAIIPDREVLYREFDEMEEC
T1 sequence (P26664 1027-1657): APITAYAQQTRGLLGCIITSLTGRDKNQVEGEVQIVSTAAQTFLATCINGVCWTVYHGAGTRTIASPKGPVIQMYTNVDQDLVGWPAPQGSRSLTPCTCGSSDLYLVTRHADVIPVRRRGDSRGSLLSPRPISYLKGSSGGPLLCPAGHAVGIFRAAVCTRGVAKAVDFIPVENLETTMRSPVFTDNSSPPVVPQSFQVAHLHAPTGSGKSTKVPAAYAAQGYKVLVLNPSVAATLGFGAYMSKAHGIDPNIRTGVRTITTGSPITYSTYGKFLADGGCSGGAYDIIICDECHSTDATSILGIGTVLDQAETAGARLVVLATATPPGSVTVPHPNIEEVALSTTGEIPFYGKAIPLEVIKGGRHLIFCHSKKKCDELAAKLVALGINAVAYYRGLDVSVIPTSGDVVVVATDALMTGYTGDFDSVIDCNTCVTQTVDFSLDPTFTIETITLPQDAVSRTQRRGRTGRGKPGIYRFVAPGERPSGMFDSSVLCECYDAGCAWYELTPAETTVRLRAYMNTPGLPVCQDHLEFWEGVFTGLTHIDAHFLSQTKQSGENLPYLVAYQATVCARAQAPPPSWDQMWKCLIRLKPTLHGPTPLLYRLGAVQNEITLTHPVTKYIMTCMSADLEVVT

Structure (SMILES) | IC50 [nM]
C=C[C@@H]1C[C@]1(NC(=O)[C@@H]1C[C@@]2(CN1C(=O)[C@@H](NC(=O)[C@@H](NC(=O)C1CN(C(C)C)C1)C(C)(C)C)C(C)(C)C)C(C)(C)C21CCC1)C(=O)NS(=O)(=O)C1CC1 [Compound 139, (5R,8S)-N-{(1R,2S)-1-[(cyclopropylsulfonyl)carba-moyl]-2-vinylcyclopropyl}-7-[(2S)-2-{[(2S)-2-{[(1-isopropylazetidin-3-yl)carbonyl]amino}-3,3-dimethylbutanoyl]amino}-3,3-dimethylbutanoyl]-10,10-dimethyl-7-azadispiro[3.0.4.1]decane-8-carboxamide] | 15
C=C[C@@H]1C[C@]1(NC(=O)[C@@H]1C[C@@]2(CN1C(=O)[C@@H](NC(=O)[C@@H](NC(=O)c1ncn[nH]1)C(C)(C)C)C(C)(C)C)C(C)(C)C21CCC1)C(=O)NS(=O)(=O)C1CC1 [Compound 41, (5R,8S)-N-{(1R,2S)-1-[(cyclopropylsulfonyl)carba-moyl]-2-vinylcyclopropyl}-7-[(2S)-2-({(2S)-3,3-dimethyl-2-[(1H-1,2,4-triazol-5-ylcarbonyl)amino]butanoyl}amino)-3,3-dimethylbutanoyl]-10,10-dimethyl-7-azadispiro[3.0.4.1]decane-8-carboxamide] | 25
C=C[C@@H]1C[C@]1(NC(=O)[C@@H]1C[C@@]2(CN1C(=O)[C@@H](NC(=O)[C@@H](NC(=O)c1cnccn1)C1CCCCC1)C(C)(C)C)C(C)(C)C21CCC1)C(=O)NS(=O)(=O)C1CC1 [Compound 88, (5R,8S)-7-[(2S)-2-({(2S)-2-cyclohexyl-2-[(pyrazin-2-ylcarbonyl)amino]acetyl}amino)-3,3-dimethylbutanoyl]-N-{(1R,2S)-1-[(cyclopropylsulfonyl)carba-moyl]-2-vinylcyclopropyl}-10,10-dimethyl-7-azadispiro[3.0.4.1]decane-8-carboxamide] | 0.8
C=C[C@@H]1C[C@]1(NC(=O)[C@@H]1C[C@@]2(CN1C(=O)[C@@H](NC(=O)[C@@H](NC(=O)c1nc3ccccc3[nH]1)C(C)(C)C)C(C)(C)C)C(C)(C)C21CCC1)C(=O)NS(=O)(=O)C1CC1 [Compound 120, (5R,8S)-7-[(2S)-2-({(2S)-2-[(1H-benzimidazol-2-ylcarbonyl)amino]-3,3-dimethylbutanoyl}amino)-3,3-dimethylbutanoyl]-N-{(1R,2S)-1-[(cyclopropylsulfonyl)carba-moyl]-2-vinylcyclopropyl}-10,10-dimethyl-7-azadispiro[3.0.4.1]decane-8-carboxamide] | 0.7
C=CCC(C)(NC(=O)[C@@H]1C[C@@]2(CN1C(=O)[C@@H](NC(=O)[C@@H](NC(=O)[C@@H]1CCCCN1C(C)C)C(C)(C)C)C(C)(C)C)C(C)(C)C21CCC1)C(=O)NS(=O)(=O)C1CC1 (stereo partly drawn) [Compound 86, (5R,8S)-N-{1-[(cyclopropylsulfonyl)carba-moyl]-1-methylbut-3-en-1-yl}-7-[(2S)-2-{[(2S)-2-({[(2S)-1-isopropylpiperidin-2-yl]carbonyl}amino)-3,3-dimethylbutanoyl]amino}-3,3-dimethylbutanoyl]-10,10-dimethyl-7-azadispiro[3.0.4.1]decane-8-carboxamide] | 4050
CC(C)N1CCCC[C@H]1C(=O)N[C@H](C(=O)N[C@H](C(=O)N1C[C@]2(C[C@H]1C(=O)NC1(C(=O)NS(=O)(=O)C3CC3)CCCC1)C(C)(C)C21CCC1)C(C)(C)C)C1CCCCC1 [Compound 84, (5R,8S)-7-[(2S)-2-{[(2S)-2-cyclohexyl-2-({[(2S)-1-isopropylpiperidin-2-yl]carbonyl}amino)acetyl]amino}-3,3-dimethylbutanoyl]-N-{1-[(cyclopropylsulfonyl)carba-moyl]cyclopentyl}-10,10-dimethyl-7-azadispiro[3.0.4.1]decane-8-carboxamide] | 100
C=C[C@@H]1C[C@]1(NC(=O)[C@@H]1C[C@@]2(CN1C(=O)[C@@H](NC(=O)[C@@H](NC(=O)C1CCCCN1C(C)C)C(C)(C)C)C(C)(C)C)C(C)(C)C21CCC1)C(=O)NS(C)(=O)=O (stereo partly drawn) [Compound 94, (5R,8S)-7-[(2S)-2-{[(2S)-2-{[(1-isopropylpiperidin-2-yl)carbonyl]amino}-3,3-dimethylbutanoyl]amino}-3,3-dimethylbutanoyl]-10,10-dimethyl-N-{(1R,2S)-1-[(methylsulfonyl)carbamoyl]-2-vinylcyclopropyl}-7-azadispiro[3.0.4.1]decane-8-carboxamide] | 10
C=C[C@@H]1C[C@]1(NC(=O)[C@@H]1C[C@@]2(CN1C(=O)[C@@H](NC(=O)[C@@H](NC(=O)[C@@H]1CCC(=O)N1)C1CCCCC1)C(C)(C)C)C(C)(C)C21CCC1)C(=O)NS(=O)(=O)C1CC1 [Compound 110, (5R,8S)-7-[(2S)-2-{[(2S)-2-cyclohexyl-2-({[(2S)-5-oxopyrrolidin-2-yl]carbonyl}amino)acetyl]amino}-3,3-dimethylbutanoyl]-N-{(1R,2S)-1-[(cyclopropylsulfonyl)carba-moyl]-2-vinylcyclopropyl}-10,10-dimethyl-7-azadispiro[3.0.4.1]decane-8-carboxamide] | 1.5
C=C[C@@H]1C[C@]1(NC(=O)[C@@H]1C[C@@]2(CN1C(=O)[C@@H](NC(=O)[C@@H](NC(=O)[C@H]1CCN1C(C)C)C(C)(C)C)C(C)(C)C)C(C)(C)C21CCC1)C(=O)NS(=O)(=O)C1CC1 [Compound 135, (5R,8S)-N-{(1R,2S)-1-[(cyclopropylsulfonyl)carba-moyl]-2-vinylcyclopropyl}-7-[(2S)-2-{[(2S)-2-({[(2R)-1-isopropylazetidin-2-yl]carbonyl}amino)-3,3-dimethylbutanoyl]amino}-3,3-dimethylbutanoyl]-10,10-dimethyl-7-azadispiro[3.0.4.1]decane-8-carboxamide] | 15
CC(C)N1CCCCC1C(=O)N[C@H](C(=O)N[C@H](C(=O)N1C[C@]2(C[C@H]1C(=O)N[C@]1(C(=O)NS(=O)(=O)C3CC3)CC=CCC1)C(C)(C)C21CCC1)C(C)(C)C)C(C)(C)C (stereo partly drawn) [Compound 26, (5R,8S)-N-{(1S)-1-[(cyclopropylsulfonyl)carba-moyl]cyclohex-3-en-1-yl}-7-[(2S)-2-{[(2S)-2-{[(1-isopropylpiperidin-2-yl)carbonyl]amino}-3,3-dimethylbutanoyl]amino}-3,3-dimethylbutanoyl]-10,10-dimethyl-7-azadispiro[3.0.4.1]decane-8-carboxamide] | 2950

Same assay, conditions: read-out: Protease IC50

Structure (SMILES) | IC50 [nM]
C=C[C@@H]1C[C@]1(NC(=O)[C@@H]1C[C@@]2(CN1C(=O)[C@@H](NC(=O)N[C@H](C(=O)NC)C(C)(C)C)C(C)(C)C)C(C)(C)C21CCC1)C(=O)NS(=O)(=O)C1CC1 [Compound 32, (5R,8S)-N-{(1R,2S)-1-[(cyclopropylsulfonyl)carba-moyl]-2-vinylcyclopropyl}-7-[(2S)-2-({[(1S)-2,2-dimethyl-1-(methylcarbamoyl)propyl]carbamoyl}amino)-3,3-dimethylbutanoyl]-10,10-dimethyl-7-azadispiro[3.0.4.1]decane-8-carboxamide] | 30
C=C[C@@H]1C[C@]1(NC(=O)[C@@H]1C[C@@]2(CN1C(=O)[C@@H](NC(=O)OC(C)(C)C)C(C)C)C(C)(C)C21CCC1)C(=O)NS(=O)(=O)C1CC1 [Compound 1, tert-butyl [(1S)-1-{[(5R,8S)-8-({(1R,2S)-1-[(cyclopropylsulfonyl)carba-moyl]-2-vinylcyclopropyl}carbamoyl)-10,10-dimethyl-7-azadispiro[3.0.4.1]dec-7-yl]carbonyl}-2-methylpropyl]carbamate] | 100
